{
  "source": "patent US20060018827A1",
  "about": "“Positron therapy of inflammation, infection and disease” (priority 2004, published 2006)",
  "key": {"[1]": {"system": "mammary tumors of PyMT mice", "test": "PET imaging of PyMT mice with ^18F-FDG", "assay_type": "in vivo, mouse", "conditions": "PET 1 hour after i.p. 0.5-2.0 mCi", "experimental": "Animals. All procedures involving mice were conducted in accordance with the National Institutes of Health regulations concerning the use and care of experimental animals. The study of mice was approved by the Albert Einstein College of Medicine (AECOM) Animal Use Committee. Transgenic mice expressing the polyoma middle T antigen (PyMT) in the mammary epithelium under the control of mouse mammary tumor virus (MMTV) long terminal repeat were provided by Dr. W. J. Muller (McMaster University, Ontario, Canada) and then bred at AECOM. At the age of 10 weeks these mice have multiple mammary tumors 0.15-0.17 cm in diameter. In mice older than 18 weeks the tumors are more than 1 cm in diameter. MMTV-NeuT mice (Muller et al. 1988), which carry erbB-2 (Neu), one of the better known human breast cancer oncogenes, were purchased from Jackson Laboratories. MMTV-NeuT mice were obtained as retired breeders and some of them developed mammary tumors at the age of 5 months, whereas others remained-tumor free until 6-7 months of age. C3H/B6 female mice lacking the PyMT transgene were used as healthy controls in therapy experiments. […]\nImaging of mice with ^18F-FDG. […] The tumor to liver ratios (TLRs) were calculated by the formula TLR=counts per pixel in tumor divided by counts per pixel in liver."}, "xenografted Notch tumor": {"system": "xenografted Notch tumor", "test": "PET-CT imaging of Notch tumor-bearing mice with ^18F-FDG", "assay_type": "in vivo, mouse", "conditions": "nude mice with Notch tumor; PET-CT 1 hour after i.p. 0.5 mCi", "experimental": "Notch cell line. Mouse mammary gland cell line 5505 was derived from mammary tumors arising in transgenic mice which express an activated form of Notch 4 from the mouse mammary tumor virus long terminal repeat (MMTV-LTR) promoter/enhancer (Fitzgerald et al. 2000). This cell line is further referred to herein as Notch cells. The Notch cells were cultured in DMEM supplemented with 10% FCS, 10% NCTC-109, 1% non-essential amino acids, […] D-glucose and 1% penicillin-streptomycin.\nAnimals. All procedures involving mice were conducted in accordance with the National Institutes of Health regulations concerning the use and care of experimental animals. The study of mice was approved by the Albert Einstein College of Medicine (AECOM) Animal Use Committee. Transgenic mice expressing the polyoma middle T antigen (PyMT) in the mammary epithelium under the control of mouse mammary tumor virus (MMTV) long terminal repeat were provided by Dr. W. J. Muller (McMaster University, Ontario, Canada) and then bred at AECOM. At the age of 10 weeks these mice have multiple mammary tumors 0.15-0.17 cm in diameter. […]\nNotch tumor-bearing animals were fasted and anesthetized as described above. […] The tumor to normal muscle ratio (TNR) was calculated according to the formula: TNR=average counts per pixel in tumor/average counts per pixel in normal muscle."}},
  "note": "Values joined by “and” are separate entries in the source; they are usually repeats but may differ in a detail not shown here. Identical values can stand only once.",
  "data": [
    {"smiles": "O=C[C@H]([18F])[C@@H](O)[C@H](O)[C@H](O)CO", "note": "[^18F-FDG, ^18F-2-deoxy-2-fluoro-D-glucose]", "values": [
      {"measurement": "tumor to liver ratio (TLR), mean±SD", "setting": "[1]", "value": "1.6±0.1"},
      {"measurement": "tumor to normal muscle ratio (TNR)", "setting": "xenografted Notch tumor", "value": "3.24 and 3.24±0.20"}
    ]}
  ]
}
